According to publication PMC6100082, “Pyridine-Ureas as Potential Anticancer Agents: Synthesis and In Vitro Biological Evaluation” (Molecules : A Journal of Synthetic Chemistry and Natural …, 2018):
Read-outs that look alike come from different tables or passages of the source.

How the values were obtained:
Type in all cases: cell-based, human
PC-3 = assay: NCI one-dose SRB assay (Prostate); conditions: for inhibition at 10 µM: Homo sapiens, PC-3, 10 μM, read-out: Percentage growth inhibition (GI%); for Growth Percent: PC-3, 1.00E-5 Molar
Protocol: (§1) The structures of all the newly prepared pyridine-ureas 8a–n were submitted to the National Cancer Institute (NCI) Developmental Therapeutic Program. Eight compounds 8b, 8d, 8e, 8i, 8j and 8l–n were selected to be examined for their in vitro growth inhibitory activity. The anticancer assays were carried out according to the protocol of the Drug Evaluation Branch, NCI, Bethesda. The selected pyridine-ureas were tested at one dose primary anticancer assay against a panel of approximately 58 cancer lines (concentration 10^−5 M). The tested human cancer cell lines emerged from nine different cancer subtypes: leukemia, colon, melanoma, ovarian, lung, CNS, renal, breast and prostate cancers. The sulforhodamine B (SRB) protein assay was adopted to estimate the cell viability and growth. The results were reported as mean-graph of the percentage growth of the treated cells, and presented as percentage growth inhibition (GI%) caused by the test compounds (Table 2).
(§2) The anticancer assays were performed in accordance with the protocol of the Drug Evaluation Branch, NCI, Bethesda. A 48 h drug exposure protocol was used and sulforhodamine B (SRB) protein assay was applied to estimate the cell viability and growth, as reported earlier.

SF-539 = assay: NCI one-dose SRB assay (CNS Cancer); conditions: for inhibition at 10 µM: Homo sapiens, SF-539, 10 μM, read-out: Percentage growth inhibition (GI%); for Growth Percent: SF-539, 1.00E-5 Molar
Protocol: as §1, §2

U251 = assay: NCI one-dose SRB assay (CNS Cancer); conditions: for inhibition at 10 µM: Homo sapiens, U-251, U251, 10 μM, read-out: Percentage growth inhibition (GI%); for Growth Percent: U251, 1.00E-5 Molar
Protocol: as §1, §2

SNB-75 = assay: NCI one-dose SRB assay (CNS Cancer); conditions: for inhibition at 10 µM: Homo sapiens, SNB-75, 10 μM, read-out: Percentage growth inhibition (GI%); for Growth Percent: SNB-75, 1.00E-5 Molar
Protocol: as §1, §2

SF-295 = assay: NCI one-dose SRB assay (CNS Cancer); conditions: for inhibition at 10 µM: Homo sapiens, SF-295, 10 μM, read-out: Percentage growth inhibition (GI%); for Growth Percent: SF-295, 1.00E-5 Molar
Protocol: as §1, §2

SF-268 = assay: NCI one-dose SRB assay (CNS Cancer); conditions: for inhibition at 10 µM: Homo sapiens, SF-268, 10 μM, read-out: Percentage growth inhibition (GI%); for Growth Percent: SF-268, 1.00E-5 Molar
Protocol: as §1, §2

SNB-19 = assay: NCI one-dose SRB assay (CNS Cancer); conditions: for inhibition at 10 µM: Homo sapiens, SNB-19, 10 μM, read-out: Percentage growth inhibition (GI%); for Growth Percent: SNB-19, 1.00E-5 Molar
Protocol: as §1, §2

NCI 58 cell line panel = assay: NCI one-dose SRB assay, whole panel / subpanel summary; conditions: for inhibition at 10 µM: Homo sapiens, one dose, read-out: mean inhibition (mean % growth inhibition over NCI 58 cell line panel); for Mean Growth Percent: One Dose Mean Graph, 1.00E-5 Molar
Protocol: as §1, §2

786-0 = assay: NCI one-dose SRB assay (Renal Cancer); conditions: for Growth Percent: 786-0, 1.00E-5 Molar; for inhibition at 10 µM: Homo sapiens, 786-0, 10 μM, read-out: Percentage growth inhibition (GI%)
Protocol: as §1, §2

A498 = assay: NCI one-dose SRB assay (Renal Cancer); conditions: for Growth Percent: A498, 1.00E-5 Molar; for inhibition at 10 µM: Homo sapiens, A498, 10 μM, read-out: Percentage growth inhibition (GI%)
Protocol: as §1, §2

RXF 393 = assay: NCI one-dose SRB assay (Renal Cancer); conditions: for inhibition at 10 µM: Homo sapiens, RXF 393, 10 μM, read-out: Percentage growth inhibition (GI%); for Growth Percent: RXF 393, 1.00E-5 Molar
Protocol: as §1, §2

SN12C = assay: NCI one-dose SRB assay (Renal Cancer); conditions: for Growth Percent: 1.00E-5 Molar; for inhibition at 10 µM: Homo sapiens, read-out: Percentage growth inhibition (GI%)
Protocol: as §1, §2

UO-31 = assay: NCI one-dose SRB assay (Renal Cancer); conditions: for inhibition at 10 µM: Homo sapiens, UO-31, 10 μM, read-out: Percentage growth inhibition (GI%); for Growth Percent: UO-31, 1.00E-5 Molar
Protocol: as §1, §2

TK-10 = assay: NCI one-dose SRB assay (Renal Cancer); conditions: for inhibition at 10 µM: Homo sapiens, TK-10, 10 μM, read-out: Percentage growth inhibition (GI%); for Growth Percent: TK-10, 1.00E-5 Molar
Protocol: as §1, §2

[1] = tested on: breast cancer MCF-7 cell line; assay: In vitro anti-proliferative activity, MTT assay; conditions: Homo sapiens, MCF-7, MTT
Protocol: The in vitro anti-proliferative activity of the newly prepared pyridine-ureas 8a–n was examined against breast cancer MCF-7 cell line. The assay was carried out, as triplicates, utilizing the 3-(4,5-dimethylthiazol-2-yl)-2,5-diphenyltetrazolium bromide (MTT) colorimetric assay as described by T. Mosmann. Doxorubicin and Sorafenib were included in this assay as a reference drug.
MCF-7 (human breast cancer cell line) and WI-38 (human lung fibroblast cell line), were obtained from American Type Culture Collection (Manassas, VA, USA). The cells were propagated in DMEM and supplemented with 10% heat-inactivated FBS (Hyclone), 10 μg/mL of insulin (Manufacturer, Sigma, St. Louis, MO, USA), and 1% penicillin-streptomycin. MTT assay was utilized to examine the in vitro anti-proliferative activity of the newly prepared ureas following the reported procedures. […] The data presented are the mean of at least three separate experiments.

OVCAR-5 = assay: NCI one-dose SRB assay (Ovarian Cancer); conditions: for inhibition at 10 µM: Homo sapiens, OVCAR-5, 10 μM, read-out: Percentage growth inhibition (GI%); for Growth Percent: OVCAR-5, 1.00E-5 Molar
Protocol: as §1, §2

OVCAR-8 = assay: NCI one-dose SRB assay (Ovarian Cancer); conditions: for inhibition at 10 µM: Homo sapiens, OVCAR-8, 10 μM, read-out: Percentage growth inhibition (GI%); for Growth Percent: OVCAR-8, 1.00E-5 Molar
Protocol: as §1, §2

SK-OV-3 = assay: NCI one-dose SRB assay (Ovarian Cancer); conditions: for inhibition at 10 µM: Homo sapiens, SK-OV-3, 10 μM, read-out: Percentage growth inhibition (GI%); for Growth Percent: SK-OV-3, 1.00E-5 Molar
Protocol: as §1, §2

NCI/ADR-RES = assay: NCI one-dose SRB assay (Ovarian Cancer); conditions: for Growth Percent: 1.00E-5 Molar; for inhibition at 10 µM: Homo sapiens, read-out: Percentage growth inhibition (GI%)
Protocol: as §1, §2

OVCAR-3 = assay: NCI one-dose SRB assay (Ovarian Cancer); conditions: for inhibition at 10 µM: Homo sapiens, OVCAR-3, 10 μM, read-out: Percentage growth inhibition (GI%); for Growth Percent: OVCAR-3, 1.00E-5 Molar
Protocol: as §1, §2

OVCAR-4 = assay: NCI one-dose SRB assay (Ovarian Cancer); conditions: for inhibition at 10 µM: Homo sapiens, OVCAR-4, 10 μM, read-out: Percentage growth inhibition (GI%); for Growth Percent: OVCAR-4, 1.00E-5 Molar
Protocol: as §1, §2

IGROV1 = assay: NCI one-dose SRB assay (Ovarian Cancer); conditions: for inhibition at 10 µM: Homo sapiens, IGROV-1, IGROV1, 10 μM, read-out: Percentage growth inhibition (GI%); for Growth Percent: IGROV1, 1.00E-5 Molar
Protocol: as §1, §2

[2] = MCF7, 48 h, 48 h of incubation, read-out: IC50 48 h
[3] = MCF7, 72 h, 72 h of incubation, read-out: IC50 72 h

COc1ccc(-c2ccc(NC(=O)Nc3ccc(Cl)cc3)c(C)n2)cc1 [Compound 8d, 1-(4-Chlorophenyl)-3-(6-(4-methoxyphenyl)-2-methylpyridin-3-yl) Urea]
inhibition at 10 µM (PC-3): 24%
Growth Percent (PC-3): 76.01%
inhibition at 10 µM (SF-539): 16%
Growth Percent (SF-539): 84.16%
inhibition at 10 µM (U251): 24%
Growth Percent (U251): 76.51%
inhibition at 10 µM (SNB-75): 16%
Growth Percent (SNB-75): 84.87%
inhibition at 10 µM (SF-295): < 10%
Growth Percent (SF-295): 97.10%
inhibition at 10 µM (SF-268): < 10%
Growth Percent (SF-268): 96.43%
inhibition at 10 µM (SNB-19): < 10%
Growth Percent (SNB-19): 94.20%
inhibition at 10 µM (NCI 58 cell line panel): 14%
Mean Growth Percent (NCI 58 cell line panel): 86.24%
Growth Percent (786-0): 90.10%
inhibition at 10 µM (786-0): 10%
Growth Percent (A498): 79.24%
inhibition at 10 µM (A498): 21%
inhibition at 10 µM (RXF 393): < 10%
Growth Percent (RXF 393): 98.51%
Growth Percent (SN12C): 98.33%
inhibition at 10 µM (SN12C): < 10%
inhibition at 10 µM (UO-31): 11%
Growth Percent (UO-31): 89.14%
inhibition at 10 µM (TK-10): < 10%
Growth Percent (TK-10): 102.41%
IC50 [1, 2]: 7100 ± 380 nM
IC50 [1, 3]: 5140 ± 460 nM
inhibition at 10 µM (OVCAR-5): < 10%
Growth Percent (OVCAR-5): 93.01%
inhibition at 10 µM (OVCAR-8): < 10%
Growth Percent (OVCAR-8): 93.26%
inhibition at 10 µM (SK-OV-3): 18%
Growth Percent (SK-OV-3): 82.66%
Growth Percent (NCI/ADR-RES): 92.03%
inhibition at 10 µM (NCI/ADR-RES): < 10%
inhibition at 10 µM (OVCAR-3): < 10%
Growth Percent (OVCAR-3): 101.66%
inhibition at 10 µM (OVCAR-4): 26%
Growth Percent (OVCAR-4): 74.67%
inhibition at 10 µM (IGROV1): 17%
Growth Percent (IGROV1): 83.85%

COc1ccc(-c2ccc(NC(=O)Nc3ccc(Cl)c(C(F)(F)F)c3)c(C)n2)cc1 [Compound 8e, 1-(4-Chloro-3-(trifluoromethyl)phenyl)-3-(6-(4-methoxyphenyl)-2-methylpyridin-3-yl)urea]
inhibition at 10 µM (PC-3): 86%
Growth Percent (PC-3): 14.67%
inhibition at 10 µM (SF-539): 19%
Growth Percent (SF-539): 81.32%
inhibition at 10 µM (U251): 67%
Growth Percent (U251): 33.63%
inhibition at 10 µM (SNB-75): 27%
Growth Percent (SNB-75): 73.44%
inhibition at 10 µM (SF-295): 54%
Growth Percent (SF-295): 46.97%
inhibition at 10 µM (SF-268): 27%
Growth Percent (SF-268): 73.73%
inhibition at 10 µM (SNB-19): 43%
Growth Percent (SNB-19): 57.33%
inhibition at 10 µM (NCI 58 cell line panel): 49%
Mean Growth Percent (NCI 58 cell line panel): 51.42%
Growth Percent (786-0): 56.08%
inhibition at 10 µM (786-0): 44%
Growth Percent (A498): 57.74%
inhibition at 10 µM (A498): 43%
inhibition at 10 µM (RXF 393): 19%
Growth Percent (RXF 393): 81.37%
Growth Percent (SN12C): 57.41%
inhibition at 10 µM (SN12C): 43%
inhibition at 10 µM (UO-31): 61%
Growth Percent (UO-31): 39.33%
inhibition at 10 µM (TK-10): 35%
Growth Percent (TK-10): 65.92%
IC50 [1, 2]: 220 ± 20 nM
IC50 [1, 3]: 110 ± 100 nM
inhibition at 10 µM (OVCAR-5): 11%
Growth Percent (OVCAR-5): 89.11%
inhibition at 10 µM (OVCAR-8): 43%
Growth Percent (OVCAR-8): 57.40%
inhibition at 10 µM (SK-OV-3): 32%
Growth Percent (SK-OV-3): 68.11%
Growth Percent (NCI/ADR-RES): 49.78%
inhibition at 10 µM (NCI/ADR-RES): 51%
inhibition at 10 µM (OVCAR-3): 73%
Growth Percent (OVCAR-3): 27.65%
inhibition at 10 µM (OVCAR-4): 55%
Growth Percent (OVCAR-4): 45.11%
inhibition at 10 µM (IGROV1): 48%
Growth Percent (IGROV1): 52.86%
